# Results reported in patent US10251838B2, “Stereospecific lipids for locoregional therapy with long-term circulating stimuli-sensitive nanocarrier systems” (THERMOSOME GmbH, priority 2013, dated 2019).
# Columns and labels:
# [1] = Phase transition temperatures (TM) of phospholipids; type: physicochemical; details: for TM (phase transition temperature): phosphatidylcholine/phosphatidyldiglycerol/phosphatidyltriglycerol/phosphatidyltetraglycerol with the given fatty acid pattern; for main (phase) transition temperature: pure lipid
# Description: By selecting a phosphatidylcholine having a suitable main transition temperature, the stimuli-sensitive nanocarrier system, in particular the thermosensitive liposome, can be customised. Table 1 gives main transition temperatures (TM) of phosphatidylcholines whose main transition temperatures are in the range of from 0 to 80° C.
# The fatty acid chains and their distribution over positions 1 and 2 of the glycerol molecule dominate the physical properties of the phospholipids. The phase transition temperature is independent of whether the phospholipid is the phosphatidylcholine, the phosphatidyldiglycerol, the phosphatidyltriglycerol or the phosphatidyltetraglycerol.
# [2] = Stability and circulation of liposomes in serum / bloodstream (animal experiments); type: in vivo; details: lipid alone in liposomes
# Description: By using phosphatidyloligoglycerols, it has been possible to prepare thermosensitive liposomes having a prolonged blood circulation time (WO 2002/064116 and WO 2004/026282). […] The majority of the liposomes remain in the blood circulation over a period of 2 hours and are therefore available for heat-controlled release of the active ingredient. Owing to the rapid release-kinetics of these liposomes with heat-induced release of the active ingredient within a few seconds, preferably <15 seconds, more preferably <10 seconds, a previously enclosed active ingredient can be released immediately by targeted heating of the liposomes to temperatures >39° C., preferably 40-42° C.
# The main transition temperature for (1,2-dipalmitoyl)-phosphatidylcholine is approximately 41° C. The purely physical requirements for clinical use in liposomes can accordingly be fulfilled by this phosphatidylcholine. However, the serum stability in the bloodstream of humans and animals that is required for clinical applications is lacking. (1,2-Dipalmitoyl)phosphatidylcholine alone is therefore not sufficient to achieve the therapeutic aims. […]
# Enclosed active ingredients are only released when the temperature is increased locally to about 42° C. […]
# [3] = tissue depth of 2000-3000 μm; cited from earlier work
SMILES,TM (phase transition temperature) [1] [°C],further results
"CCCCCCCCCCCCCCCCCCCC(=O)OC[C@H](COP(=O)([O-])OCC[N+](C)(C)C)OC(=O)CCCCCCCCCCCCCCCCCCC [1,2-diarachinoyl-, 1,2-diarachinoylglycero-3-phosphocholine]",66,
"CCCCCCCCCCCCCCCCCCCCCC(=O)OCC(COP(=O)([O-])OCC[N+](C)(C)C)OC(=O)CCCCCCCCCCCCCCCCCCCCC (stereo not drawn) [1,2-dibehenoyl-, 1,2-dibehenoylglycero-3-phosphocholine]",75,
"CCCCCCCCCCCCCCCCCCCCCCCC(=O)OCC(COP(=O)([O-])OCC[N+](C)(C)C)OC(=O)CCCCCCCCCCCCCCCCCCCCCCC (stereo not drawn) [1,2-dilignoceroyl-, 1,2-dilignoceroylglycero-3-phosphocholine]",80,
"CCCCCCCCCCCCCC(=O)OCC(COP(=O)([O-])OCC[N+](C)(C)C)OC(=O)CCCCCCCCCCCCC (stereo not drawn) [1,2-dimyristoyl-, 1,2-dimyristoylglycero-3-phosphocholine]",23,main (phase) transition temperature [1]: 23 °C
"CCCCCCCCCCCCCCCC(=O)OCC(COP(=O)([O-])OCC[N+](C)(C)C)OC(=O)CCCCCCCCCCCCCCC (stereo not drawn) [1,2-dipalmitoyl-, 1,2-dipalmitoylglycero-3-phosphocholine]",41,"main (phase) transition temperature ([1]; listed as (1,2-dipalmitoyl)-phosphatidylcholine): approximately 41 °C; main (phase) transition temperature ([1]; listed as dipalmitoyl-phosphatidylcholine): 41 °C; serum stability in the bloodstream of humans and animals [2]: lacking"
"CCCCCCCCCCCCCCCCCC(=O)OCC(COP(=O)([O-])OCC[N+](C)(C)C)OC(=O)CCCCCCCCCCCCCCCCC (stereo not drawn) [1,2-distearoyl-, 1,2-distearoylglycero-3-phosphocholine]",56,main (phase) transition temperature [1]: 56 °C
"CCCCCCCCCCCCCC(=O)OCC(COC(=O)CCCCCCCCCCCCC)OP(=O)([O-])OCC[N+](C)(C)C [1,3-dimyristoyl-, 1,3-dimyristoylglycero-2-phosphocholine]",19,
"CCCCCCCCCCCCCCCC(=O)OCC(COC(=O)CCCCCCCCCCCCCCC)OP(=O)([O-])OCC[N+](C)(C)C [1,3-dipalmitoyl-, 1,3-palmitoylglycero-2-phosphocholine]",39,
"CCCCCCCCCCCCCCCCCC(=O)OCC(COC(=O)CCCCCCCCCCCCCCCCC)OP(=O)([O-])OCC[N+](C)(C)C [1,3-distearoyl-, 1,3-distearoylglycero-2-phosphocholine]",53,
"CCCCCCCC/C=C\CCCCCCCC(=O)OC(COC(=O)CCCCCCCCCCCCCCCCCCCCC)COP(=O)([O-])OCC[N+](C)(C)C (stereo not drawn) [1-behenoyl-2-oleoyl-, 1-behenoyl-2-oleoylglycero-3-phosphocholine]",14,
"CCCCCCCCCCCCCCCC(=O)OC(COC(=O)CCCCCCCCCCCCC)COP(=O)([O-])OCC[N+](C)(C)C (stereo not drawn) [1-myristoyl-2-palmitoyl-, 1-myristoyl-2-palmitoylglycero-3-phosphocholine]",37,
"CCCCCCCCCCCCCCCCCC(=O)OC(COC(=O)CCCCCCCCCCCCC)COP(=O)([O-])OCC[N+](C)(C)C (stereo not drawn) [1-myristoyl-2-stearoyl-, 1-myristoyl-2-stearoylglycero-3-phosphocholine]",42,
"CCCCCCCCCCCCCCCC(=O)OCC(COP(=O)([O-])OCC[N+](C)(C)C)OC(=O)CCCCCCCCCCC (stereo not drawn) [1-palmitoyl-2-lauroyl-, 1-palmitoyl-2-lauroylglycero-3-phosphocholine]",11,
"CCCCCCCCCCCCCCCC(=O)OCC(COP(=O)([O-])OCC[N+](C)(C)C)OC(=O)CCCCCCCCCCCCC (stereo not drawn) [1-palmitoyl-2-myristoyl-, 1-palmitoyl-2-myristoylglycero-3-phosphocholine]",27,
"CCCCCCCC/C=C\CCCCCCCC(=O)OC(COC(=O)CCCCCCCCCCCCCCC)COP(=O)([O-])OCC[N+](C)(C)C (stereo not drawn) [1-palmitoyl-2-oleoyl-, 1-palmitoyl-2-oleoylglycero-3-phosphocholine]",5,
"CCCCCCCCCCCCCCCCCC(=O)OC(COC(=O)CCCCCCCCCCCCCCC)COP(=O)([O-])OCC[N+](C)(C)C (stereo not drawn) [1-palmitoyl-2-stearoyl-, 1-palmitoyl-2-stearoylglycero-3-phosphocholine]",52,
"CCCCCCCCCCCCCCCCCC(=O)OCC(COP(=O)([O-])OCC[N+](C)(C)C)OC(=O)CCCCCCCCCCC (stereo not drawn) [1-stearoyl-2-lauroyl-, 1-stearoyl-2-lauroylglycero-3-phosphocholine]",17,
"CCCCCCCCCCCCCCCCCC(=O)OCC(COP(=O)([O-])OCC[N+](C)(C)C)OC(=O)CCCCCCCCCCCCC (stereo not drawn) [1-stearoyl-2-myristoyl-, 1-stearoyl-2-myristoylglycero-3-phosphocholine]",33,
"CCCCCCCC/C=C\CCCCCCCC(=O)O[C@H](COC(=O)CCCCCCCCCCCCCCCCC)COP(=O)([O-])OCC[N+](C)(C)C [1-stearoyl-2-oleoyl-, 1-stearoyl-2-oleoyl-3-phosphocholine]",7,
"CCCCCCCCCCCCCCCCCC(=O)OCC(COP(=O)([O-])OCC[N+](C)(C)C)OC(=O)CCCCCCCCCCCCCCC (stereo not drawn) [1-stearoyl-2-palmitoyl-, 1-stearoyl-2-palmitoylglycero-3-phosphocholine]",48,
"CCCCCCCCCCCCCCCCCC(=O)OCC(COC(=O)CCCCCCCCCCCCC)OP(=O)([O-])OCC[N+](C)(C)C (stereo not drawn) [1-stearoyl-3-myristoyl-, 1-stearoyl-3-myristoylglycero-2-phosphocholine]",46,
CO[C@@]12[C@H](COC(N)=O)C3=C(C(=O)C(C)=C(N)C3=O)N1C[C@@H]1N[C@@H]12 [mitomycin C],,dogs in which no further mitomycin C was detectable [3]: 18/24
